In paper PMC4871480, “A Miniaturized Screen of a Schistosoma mansoni Serotonergic G Protein-Coupled Receptor Identifies Novel Classes of Parasite-Selective Inhibitors” (PLoS Pathogens, 2016):
Entries after “also recorded” stand apart in the source; their conditions may differ. Like-named read-outs stand apart in the source and are kept apart here.

Assays:
[1] = test system: adult schistosomes; test: Adult schistosome mobility assay; type: in vivo, Schistosoma mansoni; conditions: 10μM; for effect on 5-HT evoked increases in worm movement / time to recovery of movement after drug removal, male worms: 5-HT 100μM; for time to recovery of movement after drug removal, male worms: 2 hour exposure; for effect on basal movement of adult worms: worms at rest
Procedure: Female Swiss Webster mice exposed to Schistosoma mansoni cerceria (Strain PR-1) at 5–7 weeks old were obtained from BEI Resources (Cat. number NR-34792) and sacrificed 6–8 weeks post-infection. Mature S. mansoni were harvested from the mesenteric vasculature by portal perfusion. Briefly, mice were anesthetized in a CO2 chamber and sacrificed by cervical dislocation. Mice were perfused with sodium citrate (25mM) and adult schistosomes were harvested from the mesenteric veins. Schistosomes were washed in RPMI media containing penicillin (1000 units/mL), streptomycin (1000 μg/mL) and 25mM HEPES, then transferred to RPMI media supplemented with 2mM glutamine and 5% heat inactivated FBS. Worms were incubated overnight at 37°C, 5% CO2 before conducting assays. Recordings of adult schistosome movement were captured using a Zeiss Discovery v20 stereomicroscope and a QiCAM 12-bit cooled color CCD camera. Videos were acquired at a rate of four frames per second for one minute. Recordings of female worms were acquired at 7.6x magnification, 30 mm field of view and recordings of male worms were acquired at a 5.1x magnification, 45 mm field of view. Analysis was performed in ImageJ as described previously. Briefly, image (.tiff) stacks of each recording were imported and processed by converting to binary format so that pixel measurements represent area of the worms’ bodies. Mobility was quantified by measuring the difference in pixels resulting from subtracting the value of one frame (n) from those of the next frame in the sequence (n+1). This difference was expressed as a percentage of the pixels in the initial frame (n), providing a measurement of the worms’ movement over a period of 0.25 seconds. This calculation was performed for each frame in the video, and the results were averaged over the length of the recording. Values reported represent the mean (±) standard error of at least three independent experiments. Animal work was carried out with the oversight and approval of the Laboratory Animal Resources facility at the Iowa State University College of Veterinary Medicine.

[2] = test system: regenerating planarians; design: method as in PMID 24586156; conditions: cited from earlier work
[3] = biological target: T1, Hs.5HT7R (Homo sapiens, UniProt P34969); test: GloSensor cAMP assay in HEK293 cells expressing Hs.5HT7R; type: cell-based; conditions: for potency (IC50) at Hs.5HT7R: Fig 7 quadrant
T1 construct: host or cells: HEK293 (ATCC CRL-1573.3), transient transfection, pCS2(-) vector
T1 sequence (P34969 1-445 isoform P34969-2): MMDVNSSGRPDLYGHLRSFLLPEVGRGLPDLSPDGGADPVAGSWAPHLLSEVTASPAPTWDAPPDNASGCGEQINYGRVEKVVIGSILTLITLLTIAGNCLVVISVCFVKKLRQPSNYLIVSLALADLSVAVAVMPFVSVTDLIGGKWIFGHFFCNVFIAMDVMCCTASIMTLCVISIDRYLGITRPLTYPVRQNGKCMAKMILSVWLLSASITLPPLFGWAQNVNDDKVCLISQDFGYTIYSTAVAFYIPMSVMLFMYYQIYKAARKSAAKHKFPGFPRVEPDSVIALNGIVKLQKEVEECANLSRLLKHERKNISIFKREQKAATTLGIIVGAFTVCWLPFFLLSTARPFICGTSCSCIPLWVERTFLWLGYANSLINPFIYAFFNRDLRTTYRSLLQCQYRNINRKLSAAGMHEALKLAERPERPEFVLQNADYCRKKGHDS
Procedure: (§1) HEK293 cells (ATCC CRL-1573.3) were cultured in DMEM supplemented with 10% fetal bovine serum (FBS), penicillin (100 units/ml), streptomycin (100 μg/ml), and L-glutamine (290 μg/ml). Cells were transiently transfected (ViaFect, Promega) as per the manufacturer’s protocol at a density of 2x10^6 cells per T-25 cell-culture flask. Cells were transfected with plasmids encoding GloSensor (Promega) and either Sm.5HTR (Smp_126730, GenBank accession number KF444051.1) or Sm.5HTRL (KX150867), bothGPCRs being codon optimized for mammalian expression, or Hs.5HT7a (GenBank accession number NM_000872.4, R&D Systems) subcloned into pCS2(-). Cell culture reagents were from Invitrogen. Epitope tagged constructs were used to verify expression, and untagged constructs used for all luminescence assays.
(§2) For assays performed on adherent cells, HEK-293 cells were transferred one day post transfection to 96 well, solid white plates (Corning, cat # 3917) coated with 0.01% poly-L-lysine (Sigma Aldrich) at a density of 5 x 10^4 cells / well in DMEM supplemented with 1% dialyzed FBS (Gibco). After overnight culture (37°C/5% CO2), media was decanted and replaced with 100μL / well HBSS supplemented with 0.1% BSA, 20mM HEPES (pH 7.4) and GloSensor reagent. Plates were allowed to equilibrate at room temperature for two hours prior to performing luminescence assays (GloMax-Multi Detection System plate reader, Promega). Conditions for individual assays were described as per figure legends. The standard assay to detect changes in cAMP utilized the F22 sensor in media supplemented with IBMX (200μM). Ligands were added at a concentration of 20x per well for experiments (i.e. 5μl of drug solution added to 100μl of cells). […] For the resazurin reduction assay for cellular viability, cells were incubated with resazurin (final concentration, 10μM) and tested ligands with fluorescence measurements (560 nm excitation/590 nm emission) made at 1.5hr intervals.

[4] = biological target: T2, Sm.5HTR (Schistosoma mansoni, UniProt G4V5G4); test: cell-based; type: cell-based; conditions: for potency (IC50) at Sm.5HTR: Fig 7 quadrant
T2 sequence (G4V5G4 entry or part of it): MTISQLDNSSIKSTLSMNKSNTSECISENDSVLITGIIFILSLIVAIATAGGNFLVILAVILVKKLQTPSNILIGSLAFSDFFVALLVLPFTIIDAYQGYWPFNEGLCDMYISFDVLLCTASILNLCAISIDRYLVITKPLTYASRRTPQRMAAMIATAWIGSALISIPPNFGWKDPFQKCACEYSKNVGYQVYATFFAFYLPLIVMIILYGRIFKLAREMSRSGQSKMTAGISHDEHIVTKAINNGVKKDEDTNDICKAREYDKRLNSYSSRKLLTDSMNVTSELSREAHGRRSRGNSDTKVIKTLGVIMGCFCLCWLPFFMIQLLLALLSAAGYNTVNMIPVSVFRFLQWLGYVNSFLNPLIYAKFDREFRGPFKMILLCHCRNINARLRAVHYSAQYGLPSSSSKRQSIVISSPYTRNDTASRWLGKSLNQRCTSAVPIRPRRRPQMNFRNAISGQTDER
Procedure: as §1, §2

[5] = biological target: T2, Sm.5HTR; test: Antagonist washout (inactivating antagonist) GloSensor assay on suspension cells; type: cell-based
Procedure: To test putative irreversible antagonists, assays on suspension cells were performed one day post transfection. […] Compounds were added at 10 μM, and after 30 minute incubation at room temperature cells were centrifuged (300 RCF, 5 minutes) and resuspended in fresh media. This wash step was repeated, and cells were resuspended in HBSS supplemented with 0.1% BSA, 20mM HEPES and GloSensor reagent. Cells were gently rotated to prevent aggregation and settling over the course of the two hour equilibration period, after which time they were transferred to 96 well plates at a density of 8 x 10^4 cells / 100μL per well and assays described for adherent cells.

[6] = test system: S. mansoni schistosomules; test: Schistosomule contractility assay; type: in vivo, Schistosoma mansoni; conditions: Schistosoma mansoni, read-out: IC50 (inhibition of 5-HT evoked contractions)
Procedure: Biomphalaria glabrata (M-line) snails exposed to Schistosoma mansoni miracidia (Strain PR-1) were obtained from BEI Resources (Cat. number NR-21961) and cercaria were shed following exposure to light (1.5 hours). Cercaria were manually transformed into schistosomula by vortexing (3 x 45 seconds, each separated by 3 minutes on ice) and tails were removed by gradient centrifugation (24ml Percoll, 4ml 10X EMEM, 1.5ml penicillin-streptomycin, 1ml of 1M HEPES in 0.85% NaCl, 9.5ml distilled water) at 500g/15min at 4°C. Supernatant containing tails was discarded, and schistosomules were resuspended in Basch media and incubated (37°C, 5% CO2) overnight before conducting mobility assays. For contractility experiments, somules were incubated in 5-HT free Basch media to resolve a basal contractility rate. […] Schistosomules were incubated in 24 well plates (~200 schistosomules / 0.5mL media per well) for 30 minutes (37°C/5% CO2) prior to acquiring videos of schistosome movement (1 minute recordings / well) using a Nikon Coolpix 5700 camera affixed to a Nikon Eclipse TS100 microscope (10x objective). The WrmTrck plugin for ImageJ was used to quantify worm mobility. Briefly, the major axis of each schistosomule body length was extracted from the raw output of WrmTrck and an average length was determined for the duration of the recording. Contractions were quantified by determining the number of episodes during which the worm body length deviated from the average by over 20%. S. mansoni protocols were approved by the Iowa State University Institutional Biosafety Committee.

[7] = biological target: Sm.5HTRL (Schistosoma mansoni, UniProt A0A173FEI8); test: GloSensor cAMP assay in HEK293 cells expressing Sm.5HTRL; type: cell-based; conditions: antagonists 10μM, 5-HT EC80 dose
Chain of Sm.5HTRL (A0A173FEI8 entry or part of it): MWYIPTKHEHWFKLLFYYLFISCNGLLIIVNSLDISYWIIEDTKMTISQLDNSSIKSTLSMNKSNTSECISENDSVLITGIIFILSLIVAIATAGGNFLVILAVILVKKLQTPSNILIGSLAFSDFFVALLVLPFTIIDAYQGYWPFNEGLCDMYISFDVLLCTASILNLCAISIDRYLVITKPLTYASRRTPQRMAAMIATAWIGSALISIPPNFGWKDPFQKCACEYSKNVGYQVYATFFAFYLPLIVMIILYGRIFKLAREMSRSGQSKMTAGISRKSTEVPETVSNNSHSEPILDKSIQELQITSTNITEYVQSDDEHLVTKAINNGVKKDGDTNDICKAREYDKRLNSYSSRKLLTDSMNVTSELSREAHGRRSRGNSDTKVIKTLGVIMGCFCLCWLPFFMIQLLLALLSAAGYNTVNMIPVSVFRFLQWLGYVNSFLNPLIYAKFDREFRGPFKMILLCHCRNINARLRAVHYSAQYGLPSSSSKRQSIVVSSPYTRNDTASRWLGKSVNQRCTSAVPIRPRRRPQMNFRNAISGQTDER
Procedure: as §1, §2

CC(C)C[C@H]1C(=O)N2CCC[C@H]2[C@]2(O)O[C@](NC(=O)[C@@H]3C=C4c5cccc6[nH]c(Br)c(c56)C[C@H]4N(C)C3)(C(C)C)C(=O)N12 [bromocriptine]
effect on 5-HT evoked increases in worm movement [1]: inhibited
time to recovery of movement after drug removal, male worms [1]: 24 h
effect on basal movement of adult worms [1]: markedly inhibited worm movements at rest
concentration evoking bipolarity, fold less than PZQ [2]: 100 fold
potency (IC50) at Hs.5HT7R [3]: supra-μM potency
ligand type at Sm.5HTR ([4]; Fig 5F): Antagonist
potency (IC50) at Sm.5HTR [4]: sub-μM potency
Kb ([4]; KB (affinity constant, Schild regression), right-shift of 5-HT dose-response): 410 nM
selectivity for the parasitic 5-HT receptor ([4]; Sm.5HTR over Hs.5HT7R): ~ 10 fold
inhibition of 5-HT evoked cAMP generation ([4]; at higher concentrations (>10μM)): almost complete inhibition
agonist efficacy at Sm.5HTR ([4]; dose response, Fig 5A): no efficacy
acute inhibition of 5-HT (10μM) response at Sm.5HTR ([4]; drug 10μM, preincubation): acutely inhibited
Kb ([4]; pKB ± S.E.M, Schild regression): 407 nM
inhibition of Sm.5HTR after antagonist wash-out ([5]; 10μM for 30 mins, washout, 5-HT response 1hr later): long-lasting inhibition
potency for Sm.5HTR inhibition after washout ([5]; titration, Fig 6E): most potent
IC50 [6]: ≤ 1000 nM

COc1cc2c(cc1OC)[C@@H]1Cc3ccc(OC)c(OC)c3CN1CC2 [rotundine]
effect on 5-HT evoked increases in worm movement [1]: inhibited
time to recovery of movement after drug removal, male worms [1]: ≤ 3 h
effect on basal movement of adult worms [1]: markedly inhibited worm movements at rest
potency (IC50) at Hs.5HT7R [3]: supra-μM potency
effect on Hs.5HT7 ([3]; concentrations up to 50μM): lacking any effect
IC50 [4]: 701 ± 207 nM
selectivity for Sm.5HTR over Hs.5HT7R [4]: clear selectivity for Sm.5HTR; also recorded: clear bias toward Sm.5HTR
potency (IC50) at Sm.5HTR [4]: sub-μM potency
IC50 ([4]; IC50 (antagonism of 5-HT evoked cAMP generation), 5-HT at EC80): ~700 nM
IC50 [6]: ≤ 1000 nM
inhibition of 5-HT evoked cAMP generation through Sm.5HTRL [7]: inhibited 5-HT evoked cAMP generation
